US20070031328A1, “Radiolabeled-pegylation of ligands for use as imaging agents” (priority 2005, published 2007)
Each block holds one molecule with its values, some of them ahead of it.

Assays:
[1] = target: T1, Ab aggregates of AD brain homogenates (Homo sapiens, UniProt P05067); assay: Inhibition of [125I]IMPY binding to Aβ aggregates of AD brain homogenates; design: species or system human (AD patients)
T1 construct: to Ab aggregates of AD brain homogenates; from tissue; host or cells: post-mortem grey matter of AD patients, homogenised in PBS
T1 sequence (P05067 672-713 limits assumed): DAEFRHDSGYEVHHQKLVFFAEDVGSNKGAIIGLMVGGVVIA
Procedure: Postmortem brain tissues were obtained from AD patients at autopsy, and neuropathological diagnosis was confirmed by current criteria (NIA-Reagan Institute Consensus Group, 1997). Homogenates were then prepared from dissected gray matters from AD patients in phosphate buffered saline (PBS, pH 7.4) at the concentration of approximately 100 mg wet tissue/ml (motor-driven glass homogenizer with setting of 6 for 30 sec).
(§1) Binding assays were carried out in 12×75 mm borosilicate glass tubes. […] The mixture was incubated at 37° C. for 2 hr and the bound and the free radioactivity were separated by vacuum filtration through Whatman GF/B filters using a Brandel M-24R cell harvester followed by 2×3 ml washes of PBS at room temperature. Filters containing the bound ^125I ligand were assayed for radioactivity content in a gamma counter (Packard 5000) with 70% counting efficiency.
as §1, with “efficiency. […] The results of inhibition experiments were subjected to nonlinear regression analysis using EBDA by which Ki values were calculated.” for “efficiency.”

[2] = Biodistribution studies in normal mice; assay type: in vivo, male ICR mice; details: tail vein injection, avg of 3 mice ± SD
Procedure: While under isoflurane anesthesia, 0.15 mL of a saline solution containing the F-18 tracers (10-20 uCi) was injected directly into the lateral tail vein of male ICR mice. The mice (n=3 for each time point) were sacrificed by cervical dislocation at 2, 30, 60 and 120 minutes post-injection. The organs of interest were removed, weighed and assayed for radioactivity content with an automatic gamma counter. The percentage dose per organ was calculated by a comparison of the tissue counts to suitably diluted aliquots of the injected material. Total activities of blood and bone were calculated under the assumption that they were 7% and 14% of the body weight, respectively. The % dose/g of samples was calculated by comparing the sample counts with the count of the diluted initial dose.

Structure (SMILES): CNc1ccc(-c2nc3ccc(OCCOCC[18F])cc3s2)cc1 [[^18F]5a]
- Blood biodistribution ([2]; 2 min): 3.37 ± 0.46 % dose/g
- Blood biodistribution ([2]; 30 min): 3.60 ± 0.13 % dose/g
- Blood biodistribution ([2]; 1 hr): 4.55 ± 0.40 % dose/g
- Blood biodistribution ([2]; 2 hr): 4.38 ± 0.14 % dose/g
- Bone biodistribution ([2]; 2 min): 1.69 ± 0.21 % dose/g
- Bone biodistribution ([2]; 30 min): 2.28 ± 0.20 % dose/g
- Bone biodistribution ([2]; 1 hr): 3.17 ± 0.39 % dose/g
- Bone biodistribution ([2]; 2 hr): 6.35 ± 1.32 % dose/g
- Brain biodistribution ([2]; 2 min): 10.27 ± 1.30 % dose/g
- Brain biodistribution ([2]; 30 min): 4.59 ± 0.47 % dose/g
- Brain biodistribution ([2]; 1 hr): 3.94 ± 0.04 % dose/g
- Brain biodistribution ([2]; 2 hr): 3.86 ± 0.35 % dose/g
- Heart biodistribution ([2]; 2 min): 8.32 ± 0.37 % dose/g
- Heart biodistribution ([2]; 30 min): 3.49 ± 0.27 % dose/g
- Heart biodistribution ([2]; 1 hr): 3.81 ± 0.25 % dose/g
- Heart biodistribution ([2]; 2 hr): 3.59 ± 0.03 % dose/g
- Kidney biodistribution ([2]; 2 min): 13.02 ± 1.04 % dose/g
- Kidney biodistribution ([2]; 30 min): 4.54 ± 0.62 % dose/g
- Kidney biodistribution ([2]; 1 hr): 3.98 ± 0.24 % dose/g
- Kidney biodistribution ([2]; 2 hr): 3.18 ± 0.16 % dose/g
- Liver biodistribution ([2]; 2 min): 19.02 ± 1.06 % dose/g
- Liver biodistribution ([2]; 30 min): 7.98 ± 0.60 % dose/g
- Liver biodistribution ([2]; 1 hr): 6.35 ± 0.46 % dose/g
- Liver biodistribution ([2]; 2 hr): 5.05 ± 0.43 % dose/g
- Lung biodistribution ([2]; 2 min): 7.79 ± 0.34 % dose/g
- Lung biodistribution ([2]; 30 min): 3.91 ± 0.28 % dose/g
- Lung biodistribution ([2]; 1 hr): 3.84 ± 0.55 % dose/g
- Lung biodistribution ([2]; 2 hr): 3.63 ± 0.15 % dose/g
- Muscle biodistribution ([2]; 2 min): 0.82 ± 0.12 % dose/g
- Muscle biodistribution ([2]; 30 min): 2.83 ± 0.22 % dose/g
- Muscle biodistribution ([2]; 1 hr): 2.76 ± 0.17 % dose/g
- Muscle biodistribution ([2]; 2 hr): 2.36 ± 0.11 % dose/g
- Skin biodistribution ([2]; 2 min): 1.08 ± 0.22 % dose/g
- Skin biodistribution ([2]; 30 min): 3.14 ± 0.22 % dose/g
- Skin biodistribution ([2]; 1 hr): 3.15 ± 0.28 % dose/g
- Skin biodistribution ([2]; 2 hr): 2.62 ± 0.16 % dose/g
- Spleen biodistribution ([2]; 2 min): 6.92 ± 0.79 % dose/g
- Spleen biodistribution ([2]; 30 min): 3.93 ± 0.29 % dose/g
- Spleen biodistribution ([2]; 1 hr): 3.87 ± 0.61 % dose/g
- Spleen biodistribution ([2]; 2 hr): 3.32 ± 0.16 % dose/g

Structure (SMILES): CNc1ccc(-c2nc3ccc(OCCOCCOCC[18F])cc3s2)cc1 [[^18F]5b]
- Blood biodistribution ([2]; 2 min): 6.29 ± 1.19 % dose/g
- Blood biodistribution ([2]; 30 min): 3.41 ± 0.07 % dose/g
- Blood biodistribution ([2]; 1 hr): 3.91 ± 0.23 % dose/g
- Blood biodistribution ([2]; 2 hr): 4.04 ± 0.45 % dose/g
- Bone biodistribution ([2]; 2 min): 2.13 ± 0.16 % dose/g
- Bone biodistribution ([2]; 30 min): 1.48 ± 0.03 % dose/g
- Bone biodistribution ([2]; 1 hr): 1.82 ± 0.04 % dose/g
- Bone biodistribution ([2]; 2 hr): 2.41 ± 0.28 % dose/g
- Brain biodistribution ([2]; 2 min): 5.53 ± 0.56 % dose/g
- Brain biodistribution ([2]; 30 min): 2.33 ± 0.15 % dose/g
- Brain biodistribution ([2]; 1 hr): 2.18 ± 0.09 % dose/g
- Brain biodistribution ([2]; 2 hr): 1.96 ± 0.13 % dose/g
- Heart biodistribution ([2]; 2 min): 6.26 ± 1.12 % dose/g
- Heart biodistribution ([2]; 30 min): 3.22 ± 0.33 % dose/g
- Heart biodistribution ([2]; 1 hr): 3.06 ± 0.15 % dose/g
- Heart biodistribution ([2]; 2 hr): 2.50 ± 0.09 % dose/g
- Kidney biodistribution ([2]; 2 min): 9.02 ± 0.77 % dose/g
- Kidney biodistribution ([2]; 30 min): 5.27 ± 0.77 % dose/g
- Kidney biodistribution ([2]; 1 hr): 3.97 ± 0.25 % dose/g
- Kidney biodistribution ([2]; 2 hr): 2.97 ± 0.07 % dose/g
- Liver biodistribution ([2]; 2 min): 21.84 ± 1.56 % dose/g
- Liver biodistribution ([2]; 30 min): 13.75 ± 1.88 % dose/g
- Liver biodistribution ([2]; 1 hr): 11.22 ± 0.82 % dose/g
- Liver biodistribution ([2]; 2 hr): 9.13 ± 1.11 % dose/g
- Lung biodistribution ([2]; 2 min): 7.35 ± 1.50 % dose/g
- Lung biodistribution ([2]; 30 min): 3.94 ± 0.29 % dose/g
- Lung biodistribution ([2]; 1 hr): 3.63 ± 0.25 % dose/g
- Lung biodistribution ([2]; 2 hr): 3.24 ± 0.10 % dose/g
- Muscle biodistribution ([2]; 2 min): 1.40 ± 0.11 % dose/g
- Muscle biodistribution ([2]; 30 min): 1.92 ± 0.34 % dose/g
- Muscle biodistribution ([2]; 1 hr): 1.58 ± 0.13 % dose/g
- Muscle biodistribution ([2]; 2 hr): 1.38 ± 0.11 % dose/g
- Skin biodistribution ([2]; 2 min): 2.09 ± 0.22 % dose/g
- Skin biodistribution ([2]; 30 min): 2.27 ± 0.17 % dose/g
- Skin biodistribution ([2]; 1 hr): 1.92 ± 0.13 % dose/g
- Skin biodistribution ([2]; 2 hr): 1.57 ± 0.06 % dose/g
- Spleen biodistribution ([2]; 2 min): 5.24 ± 0.67 % dose/g
- Spleen biodistribution ([2]; 30 min): 2.66 ± 0.14 % dose/g
- Spleen biodistribution ([2]; 1 hr): 2.84 ± 0.13 % dose/g
- Spleen biodistribution ([2]; 2 hr): 2.46 ± 0.05 % dose/g

Structure (SMILES): CNc1ccc(-c2nc3ccc(OCCOCCOCCOCCOCCOCC[18F])cc3s2)cc1 [[^18F]5c]
- Blood biodistribution ([2]; 2 min): 3.54 ± 0.12 % dose/g
- Blood biodistribution ([2]; 30 min): 2.52 ± 0.29 % dose/g
- Blood biodistribution ([2]; 1 hr): 2.46 ± 0.29 % dose/g
- Blood biodistribution ([2]; 2 hr): 1.54 ± 0.19 % dose/g
- Bone biodistribution ([2]; 2 min): 1.68 ± 0.60 % dose/g
- Bone biodistribution ([2]; 30 min): 1.20 ± 0.29 % dose/g
- Bone biodistribution ([2]; 1 hr): 1.68 ± 0.17 % dose/g
- Bone biodistribution ([2]; 2 hr): 2.31 ± 0.37 % dose/g
- Brain biodistribution ([2]; 2 min): 2.57 ± 0.12 % dose/g
- Brain biodistribution ([2]; 30 min): 1.69 ± 0.23 % dose/g
- Brain biodistribution ([2]; 1 hr): 1.80 ± 0.25 % dose/g
- Brain biodistribution ([2]; 2 hr): 1.29 ± 0.17 % dose/g
- Heart biodistribution ([2]; 2 min): 9.37 ± 0.18 % dose/g
- Heart biodistribution ([2]; 30 min): 2.11 ± 0.27 % dose/g
- Heart biodistribution ([2]; 1 hr): 1.82 ± 0.28 % dose/g
- Heart biodistribution ([2]; 2 hr): 1.19 ± 0.15 % dose/g
- Kidney biodistribution ([2]; 2 min): 23.00 ± 0.89 % dose/g
- Kidney biodistribution ([2]; 30 min): 5.01 ± 0.84 % dose/g
- Kidney biodistribution ([2]; 1 hr): 3.50 ± 0.86 % dose/g
- Kidney biodistribution ([2]; 2 hr): 1.27 ± 0.08 % dose/g
- Liver biodistribution ([2]; 2 min): 12.43 ± 1.11 % dose/g
- Liver biodistribution ([2]; 30 min): 3.94 ± 0.29 % dose/g
- Liver biodistribution ([2]; 1 hr): 2.86 ± 0.38 % dose/g
- Liver biodistribution ([2]; 2 hr): 1.67 ± 0.32 % dose/g
- Lung biodistribution ([2]; 2 min): 4.68 ± 0.27 % dose/g
- Lung biodistribution ([2]; 30 min): 2.41 ± 0.37 % dose/g
- Lung biodistribution ([2]; 1 hr): 2.08 ± 0.32 % dose/g
- Lung biodistribution ([2]; 2 hr): 1.24 ± 0.16 % dose/g
- Muscle biodistribution ([2]; 2 min): 1.60 ± 0.98 % dose/g
- Muscle biodistribution ([2]; 30 min): 1.87 ± 0.38 % dose/g
- Muscle biodistribution ([2]; 1 hr): 1.52 ± 0.24 % dose/g
- Muscle biodistribution ([2]; 2 hr): 0.93 ± 0.07 % dose/g
- Skin biodistribution ([2]; 2 min): 0.95 ± 0.12 % dose/g
- Skin biodistribution ([2]; 30 min): 2.14 ± 1.03 % dose/g
- Skin biodistribution ([2]; 1 hr): 1.42 ± 0.14 % dose/g
- Skin biodistribution ([2]; 2 hr): 0.91 ± 0.10 % dose/g
- Spleen biodistribution ([2]; 2 min): 4.74 ± 0.23 % dose/g
- Spleen biodistribution ([2]; 30 min): 2.05 ± 0.18 % dose/g
- Spleen biodistribution ([2]; 1 hr): 1.87 ± 0.26 % dose/g
- Spleen biodistribution ([2]; 2 hr): 1.13 ± 0.16 % dose/g

Further lines, results first:

- Ki [1]: 9 ± 1.8 nM
Structure (SMILES): CNc1ccc(-c2nc3ccc(OCCOCCOCCOCCOCCOCCOCCOCCF)cc3s2)cc1 [Compound 5d, 2-[4′-(methylamino)phenyl]-6-[2-(2-{2-[2-(2-{2-[2-(2-fluoroethoxy)-ethoxy]ethoxy}ethoxy)ethoxy]ethoxy}ethoxy)ethoxy]benzothiazole]

- Ki [1]: 12 ± 0.5 nM
Structure (SMILES): CN(C)c1ccc(C=Cc2nc3ccc(OCCF)cc3o2)cc1 [Compound 8a, 6-(2-fluoroethoxy)-[2-(4-dimethylaminophenyl)-vinyl]-benzooxazol]

- Ki [1]: 10 ± 0.2 nM
Structure (SMILES): CN(C)c1ccc(/C=C/c2nc3ccc(OCCOCCOCCOCCOCCOCCF)cc3o2)cc1 [Compound 8c, 6-(2-(2-(2-(2-(2-(2-fluoroethoxy)-ethoxy)-ethoxy)-ethoxy)-ethoxy)-ethoxy)-[2-(4-dimethylaminophenyl)-vinyl]-benzooxazol]
